Measurements from ChEMBL document CHEMBL4689842, “EUbOPEN Chemogenomics Library wave 1” (2021).

System: Fibroblast
Test: Incucyte cell viability with human fibroblast; note: filed as whole numbers so only -1 and 0 and 1 occur
Assay type: toxicity, cell-based
Conditions: 10 µM, compound concentration 10 uM
[1] = 6 h, replicate number 1, timepoint 6 hours
[2] = 12 h, replicate number 1, timepoint 12 hours
[3] = 18 h, replicate number 1, timepoint 18 hours
[4] = 24 h, replicate number 1, timepoint 24 hours
[5] = 0 h, replicate number 1, timepoint 0 hours
[6] = 12 h, replicate number 2, timepoint 12 hours
[7] = 18 h, replicate number 2, timepoint 18 hours
[8] = 6 h, replicate number 2, timepoint 6 hours
[9] = 0 h, replicate number 2, timepoint 0 hours
[10] = 24 h, replicate number 2, timepoint 24 hours

Row | SMILES | Growth Rate [1] | Growth Rate [2] | Growth Rate [3] | Growth Rate [4] | Growth Rate [5] | Growth Rate [6] | Growth Rate [7] | Growth Rate [8] | Growth Rate [9] | Growth Rate [10]
1 | C=CC(=O)Nc1cccc(Oc2nc(Nc3ccc(N4CCN(C)CC4)cc3OC)ncc2Cl)c1 | 0 | 0 | 0 | 0 | – | – | – | – | – | –
2 | Cc1cccc(CN2CCN(C(c3ccccc3)c3ccc(Cl)cc3)CC2)c1.Cl.Cl (stereo not given) | – | 1 | 1 | 0 | 0 | 0 | 0 | – | – | –
3 | C=CC(=O)Nc1cccc(Sc2nc(Nc3ccc(N4CCN(C)CC4)cc3)ncc2Cl)c1 | 0 | 0 | 0 | 0 | – | – | – | – | – | –
4 | CC(C)OC(=O)N1CCC(Oc2ncnc3c2cnn3-c2ccc(S(C)(=O)=O)cc2F)CC1 | 1 | 1 | 1 | 0 | 0 | 0 | 0 | 0 | – | –
5 | COc1cc(Nc2nccc(-c3cnn4nc(OC)ccc34)n2)cc(C(F)(F)F)c1 | 0 | 0 | 0 | 0 | – | – | – | – | – | –
6 | O=c1cc(N2CCOCC2)oc2c(-c3cccc4c3sc3ccccc34)cccc12 | 0 | 0 | 0 | 0 | – | – | 1 | – | 0 | 1
7 | O=C(c1cc2c(cc1F)OC(c1ccc(F)cc1)(c1ccc(Cl)cc1Cl)O2)N1CCOCC1 (stereo not given) | – | – | 1 | 1 | 0 | 0 | 0 | – | – | 0
8 | CC(C)NC(=O)N1CC[C@H](NC2=Nc3cc(F)ccc3N(CC(F)F)c3ccc(Cl)cc32)C1 | 0 | 0 | 0 | 0 | – | – | – | – | – | –
9 | CC(C)Oc1ccccc1C(=O)Nc1ccccc1C(=O)Nc1cccc(S(=O)(=O)C(F)(F)F)c1 | – | – | – | 1 | 0 | – | – | – | – | –
10 | CC1=C(C(=O)Nc2cc3cn[nH]c3cc2F)C(c2ccc(C(F)(F)F)cc2)CC(=O)N1 (stereo not given) | – | – | – | 1 | 0 | – | – | – | – | –
11 | Cc1nc(N2CC[C@H](O)C2)ncc1-c1cc(C(F)(F)F)cc2[nH]ncc12 | 1 | 0 | 0 | 0 | 0 | – | – | 0 | – | –
12 | CN1CCN(Cc2cc(NC(=O)c3ccc4c(c3)CN(c3ccccc3)CC4)cc(C(F)(F)F)c2)CC1 | 0 | 0 | 0 | 0 | – | – | – | – | 1 | –
13 | CN(c1ccccc1CNc1nc(Nc2ccc3c(c2)CC(=O)N3)ncc1C(F)(F)F)S(C)(=O)=O | – | 1 | 0 | 0 | 1 | – | 1 | – | 0 | –
14 | Cl.O=C(O)c1cc(-c2ccc(C3CCNCC3)cc2)c2ccc(-c3ccc(C(F)(F)F)cc3)cc2c1 | – | 1 | 1 | 1 | 0 | 0 | 0 | 0 | – | 0
15 | O=c1[nH]c2ccccc2n1C1CCN(Cc2ccc(-c3[nH]c4cc5ncnc5cc4nc3-c3ccccc3)cc2)CC1 | – | 1 | 0 | 0 | – | – | – | – | 0 | –
16 | CCc1ccc(OCc2ccccc2C(=O)Nc2ccc3nc(C)cc(N)c3c2)cc1.Cl | 0 | 0 | 0 | 0 | 0 | – | – | – | – | –
17 | CNC(=O)Nc1ccc(-c2nc(N3CC4CCC(C3)O4)c3cnn(C4CCC5(CC4)OCCO5)c3n2)cc1 | 0 | 0 | 0 | 0 | 1 | – | – | – | 0 | –

Row | SMILES | Growth Rate [1] | Growth Rate [2] | Growth Rate [3] | Growth Rate [4] | Growth Rate [5] | Growth Rate [6] | Growth Rate [7] | Growth Rate [8] | Growth Rate [9] | Growth Rate [10]
18 | CNC(=O)Nc1ccc2c(c1)[C@@]1(CC2)OC(=O)N(CC(=O)N(Cc2ccc(F)cc2)[C@@H](C)C(F)(F)F)C1=O [A-486] | 0 | 0 | 0 | 0 | – | 1 | 1 | – | 0 | –
19 | Cc1cc(NC(=O)c2cccc(S(F)(F)(F)(F)F)c2)cc(-n2ccn3nc(-c4cccnc4)cc23)c1 [BAY-309] | 0 | 0 | 0 | 0 | 1 | – | – | – | – | –
20 | Cc1c[nH]c2nccc(Oc3c(F)cc(Nc4cc(Cl)nc(N)n4)cc3F)c12 [BAY-549] | – | 0 | 0 | 0 | 0 | 1 | – | – | – | –
21 | COc1ccc(-c2ccc3ncc4c(c3c2)n(-c2ccc(N3CCNCC3)c(C(F)(F)F)c2)c(=O)n4C)cn1.O=C(O)/C=C\C(=O)O [BGT-226] | 0 | 0 | 0 | 0 | 0 | – | – | – | – | –
22 | C=CC(=O)Nc1ccc2[nH]c(=O)n(C3CCN(Cc4ccc(-c5nc6cc[nH]c(=O)c6cc5-c5ccccc5)cc4)CC3)c2c1 [Borussertib] | – | 1 | 1 | 1 | 0 | – | 0 | 0 | – | 0
23 | COc1ccccc1CN[C@H]1C2CCN(CC2)[C@H]1C(c1ccccc1)c1ccccc1 [CP-96345] | – | 1 | 1 | 1 | 0 | 0 | 0 | 0 | – | 0
24 | CNC(=O)c1ccc(Nc2ncc(C(F)(F)F)c(NCc3nccnc3N(C)S(C)(=O)=O)n2)cc1 [DEFACTINIB] | – | 0 | 0 | 0 | 0 | 1 | – | 1 | 1 | –
25 | CN1CCN(Cc2ccc(Nc3ncc(Cl)c(Nc4ccccc4S(=O)(=O)N(C)C)n3)cc2)CC1 [DUBERMATINIB] | – | 1 | 0 | 0 | 0 | 0 | – | – | – | –
26 | C#Cc1cccc(Nc2ncnc3cc(OCCOC)c(OCCOC)cc23)c1 [ERLOTINIB] | 0 | 0 | 0 | 0 | 0 | 1 | – | – | – | –
27 | C[C@]12CC[C@@H]3c4ccc(O)cc4CC[C@H]3[C@@H]1CC[C@@H]2O [ESTRADIOL] | 0 | 0 | 0 | 0 | 0 | – | – | – | – | –
28 | CC(C)c1noc(N2CCC(COc3ccc(-c4ccc(S(C)(=O)=O)cc4)nc3)CC2)n1 [GSK-1292263] | 0 | 0 | 0 | 0 | 0 | – | – | – | – | –
29 | COc1cc2ncn(-c3cc(OCc4ccccc4C(F)(F)F)c(C(N)=O)s3)c2cc1OC [GW843682X] | 1 | 0 | 0 | 0 | 0 | – | – | – | – | –
30 | Cc1ccc2c(c1)c1c(n2CCc2ccc(C)nc2)CCN(C)C1 [LATREPIRDINE] | 1 | 0 | 0 | 0 | 0 | – | – | 0 | – | –
31 | C[C@]1(O)C[C@@H](c2nc(-c3ccc4ccc(-c5ccccc5)nc4c3)c3c(N)nccn32)C1 [LINSITINIB] | 1 | 1 | – | 1 | – | – | 1 | – | 0 | –
32 | CCc1nn(CCCN2CCN(c3cccc(Cl)c3)CC2)c(=O)n1CCOc1ccccc1.Cl [NEFAZODONE HYDROCHLORIDE] | 0 | 0 | 0 | 0 | 0 | – | – | – | – | –
33 | COC(=O)C1=C(C)NC(C)=C(C(=O)OCCCN2CCC(c3ccccc3)(c3ccccc3)CC2)[C@H]1c1cccc([N+](=O)[O-])c1 [NIGULDIPINE] | 0 | 0 | 0 | 0 | 0 | – | 1 | – | – | 1
34 | CC(C)CC(=O)Nc1[nH]nc2c1CN(C(=O)C1CCN(C)CC1)C2(C)C [PHA-793887] | 0 | 0 | 0 | 0 | 0 | – | – | – | – | –
